Our source for the logP values is the OPERA property sets (Mansouri et al. 2018).

Take `Oc1ccccc1C=Nc1ccccc1`: the logP was 3.09.

For `CCCCCCCCOc1cccc(NC(=O)OCCN2CCCCC2)c1`, the logP came out at 5.82.

`O=C(O)CCCl` displayed a logP of 0.41.

Turning to `Brc1ccncc1`, the logP was determined as 1.54.

As for `OC[C@H]1O[C@@H](Oc2ccc(O)cc2)[C@H](O)[C@@H](O)[C@@H]1O`, the logP is -1.35.

In turn, `O=[N+]([O-])c1cccc(SSc2cccc([N+](=O)[O-])c2)c1` had a logP of 4.06.

In turn, `CCOc1cccc2cccnc12` gave a logP of 2.25.

Take `CCCCC1(CC)C(=O)NC(=O)NC1=O`: the logP worked out at 1.73.

In the case of `COc1cccc(OCC(=O)NNC(C)C)c1`, the logP is 1.33.

As for `Oc1ccc(C(F)(F)F)cc1`, the logP worked out at 2.82.

With `Cn1c([N+](=O)[O-])cnc1-c1nc2ccccc2n1CCCN1CCOCC1`, the logP is 1.8.

`CCCOC(=O)c1ccc(S(N)(=O)=O)cc1`: the logP came to 1.75.

In turn, `CC(C)(C)c1ccccn1` gave a logP of 2.4.

In the case of `CCOCCOC(=O)C(C#N)=C(CC)Nc1ccc(N)cc1`, the logP worked out at 2.27.

Molecule `O=C(Cn1cnc([N+](=O)[O-])n1)N1CCOCC1` came in with a logP of -0.96.

In the case of `CCCCOC(=O)c1ccccc1`, the logP is 3.84.

`CCCCC1CC(C(=O)NC(C(C)Cl)C2OC(SC)C(O)C(O)C2O)N(CC)C1` (stereo not drawn): the logP came to 3.21.

`Oc1c(Br)cc(Br)c(O)c1Br` returned a logP of 4.37.

The molecule `CC(=O)OCc1ccc(Cl)cc1` came in with a logP of 2.59.

`CCCCSCS(=O)CC(CO)NC(=O)C=Cc1c(C)[nH]c(=O)[nH]c1=O` (stereo not drawn): the logP turned out to be 0.14.

`COC(=O)CCCCCC(=O)OC` had a logP of 1.38.

Molecule `CC1CN1C1=CC(=O)C(N2CC2C)=CC1=O` (stereo not drawn) yielded a logP of 1.07.

`CCC(Oc1ccccc1)C(=O)N[C@@H]1C(=O)N2[C@@H]1SC(C)(C)[C@@H]2C(=O)O` (stereo partly drawn) registered a logP of 2.65.

For the molecule `N#Cc1ccc(S(N)(=O)=O)cc1`, the logP came out at 0.23.

Regarding `CCOc1ccccc1-c1nc(N)nc(N)n1`, the logP turned out to be 1.03.

As for `OC(c1ccccc1)C(O)c1ccccc1` (stereo not drawn), the logP was 1.91.

`Cc1nnc2n1-c1sc(Br)cc1C(c1ccccc1Cl)=NC2` registered a logP of 2.79.

Regarding `O=C(O)COc1cccc(NC(=O)c2ccccc2)c1`, the logP turned out to be 1.99.

Regarding `CC(C(=O)O)c1ccc(N2CC3=C(CCCC3)C2=O)cc1` (stereo not drawn), the logP was determined as 3.07.

For the molecule `CNC(=O)Oc1cc(C)cc(C)c1`, the logP amounted to 2.23.

The molecule `Oc1cccnc1` displayed a logP of 0.48.

Molecule `c1ccc(N2CCCC2)cc1` showed a logP of 3.56.

Turning to `CN(C)C(=O)OCc1ccc(Br)cc1`, the logP was 3.01.

`CC1Nc2cc(Cl)c(S(N)(=O)=O)cc2S(=O)(=O)N1` (stereo not drawn) registered a logP of 0.08.

The molecule `O=C(O)c1c(Cl)cccc1Cl` had a logP of 2.23.

Consider `FC(F)Cl`, for which the logP stood at 1.08.

`O=C(NP(=O)(N1CC1)N1CC1)c1cccc(I)c1` showed a logP of 1.91.

In the case of `C=CCCCCCCCCC(=O)O`, the logP is 3.86.

For the molecule `ICCCI`, the logP amounted to 3.02.

For `CNc1nc(NC(C)(C)C)nc(SC(F)F)n1`, the logP is 3.91.

In turn, `CC(C)C(=O)NC(CO)C(O)c1ccc([N+](=O)[O-])cc1` (stereo not drawn) gave a logP of 0.79.

Molecule `ON=C1C=CC(=NO)C=C1` had a logP of 1.49.

In the case of `CNc1nc(NC(C)C)nc(SC(F)F)n1`, the logP turned out to be 3.27.

`NN1CCCCC1` gave a logP of -0.28.

In turn, `CCN(CC)CCNC(=O)c1cc(I)c(N)cc1OC` displayed a logP of 3.09.

`O=C(CN1CCCCC1)Nc1ccc(Br)cc1` had a logP of 3.57.

`COc1cccc(C(=O)N(C)C)c1` registered a logP of 1.

As to `CCCCCn1cnc2c(N)ncnc21`, the logP was 1.79.

In turn, `NS(=O)(=O)c1ccccc1[N+](=O)[O-]` yielded a logP of 0.34.

As for `CCCCCCCCCC(=O)OC`, the logP turned out to be 4.41.

In the case of `O=C(O)c1ccccc1C(=O)O`, the logP came out at 0.73.

On to `O=NN1CCNCC1`, for which the logP stood at 0.18.

On to `Cn1c(=O)cnc2ccccc21`, for which the logP came out at 0.79.
